Measured values from PubChem BioAssay AID504473 (NMMLSC, 2011).
Calls of active or inactive are those of the source.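 How the source made its calls: active means GFP ratio to DMSO above 1.5 or below 0.66; inactive means the rest.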

Columns and labels:
Experiment in all cases: TOR pathway GFP reporter clone modulation in yeast – S. cerevisiae, GFP-tagged clone panel, flow cytometry (AID 504473);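 further: median GFP fluorescence of the cells measured by high-throughput flow cytometry; test concentration not given here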
[1] = target: General amino acid permease AGP1 (Saccharomyces cerevisiae S288c) (UniProt P25376); conditions: S. cerevisiae GFP-tagged strains, 3 h, YCL025C
YAL060W = conditions: S. cerevisiae GFP-tagged strains, 3 h
YAL061W = conditions: S. cerevisiae GFP-tagged strains, 3 h
YBL087C = conditions: S. cerevisiae GFP-tagged strains, 3 h
YBR072W = conditions: S. cerevisiae GFP-tagged strains, 3 h
YBR139W = conditions: S. cerevisiae GFP-tagged strains, 3 h
YBR208C = conditions: S. cerevisiae GFP-tagged strains, 3 h
YBR248C = conditions: S. cerevisiae GFP-tagged strains, 3 h
YCL064C = conditions: S. cerevisiae GFP-tagged strains, 3 h
YCR002C = conditions: S. cerevisiae GFP-tagged strains, 3 h
YCR005C = conditions: S. cerevisiae GFP-tagged strains, 3 h
YDL130W = conditions: S. cerevisiae GFP-tagged strains, 3 h
YDL204W = conditions: S. cerevisiae GFP-tagged strains, 3 h
YDL205C = conditions: S. cerevisiae GFP-tagged strains, 3 h
YDR070C = conditions: S. cerevisiae GFP-tagged strains, 3 h
YDR382W = conditions: S. cerevisiae GFP-tagged strains, 3 h
YDR399W = conditions: S. cerevisiae GFP-tagged strains, 3 h
YDR453C = conditions: S. cerevisiae GFP-tagged strains, 3 h
YEL007W = conditions: S. cerevisiae GFP-tagged strains, 3 h
YEL060C = conditions: S. cerevisiae GFP-tagged strains, 3 h
YEL063C = conditions: S. cerevisiae GFP-tagged strains, 3 h
YEL071W = conditions: S. cerevisiae GFP-tagged strains, 3 h
YER081W = conditions: S. cerevisiae GFP-tagged strains, 3 h
YER117W = conditions: S. cerevisiae GFP-tagged strains, 3 h
YER151C = conditions: S. cerevisiae GFP-tagged strains, 3 h
YER156C = conditions: S. cerevisiae GFP-tagged strains, 3 h
YFR031C-A = conditions: S. cerevisiae GFP-tagged strains, 3 h
YFR053C = conditions: S. cerevisiae GFP-tagged strains, 3 h
YGL036W = conditions: S. cerevisiae GFP-tagged strains, 3 h
YGL062W = conditions: S. cerevisiae GFP-tagged strains, 3 h
YGL135W = conditions: S. cerevisiae GFP-tagged strains, 3 h
YGL147C = conditions: S. cerevisiae GFP-tagged strains, 3 h
YGR019W = conditions: S. cerevisiae GFP-tagged strains, 3 h
YGR034W = conditions: S. cerevisiae GFP-tagged strains, 3 h
YGR088W = conditions: S. cerevisiae GFP-tagged strains, 3 h
YGR121C = conditions: S. cerevisiae GFP-tagged strains, 3 h
YHL021C = conditions: S. cerevisiae GFP-tagged strains, 3 h
YHR018C = conditions: S. cerevisiae GFP-tagged strains, 3 h
YHR087W = conditions: S. cerevisiae GFP-tagged strains, 3 h
YHR141C = conditions: S. cerevisiae GFP-tagged strains, 3 h
YHR144C = conditions: S. cerevisiae GFP-tagged strains, 3 h
YHR203C = conditions: S. cerevisiae GFP-tagged strains, 3 h
YIL043C = conditions: S. cerevisiae GFP-tagged strains, 3 h
YIL051C = conditions: S. cerevisiae GFP-tagged strains, 3 h
YIL052C = conditions: S. cerevisiae GFP-tagged strains, 3 h
YIL066C = conditions: S. cerevisiae GFP-tagged strains, 3 h
YIL069C = conditions: S. cerevisiae GFP-tagged strains, 3 h
YJL056C = conditions: S. cerevisiae GFP-tagged strains, 3 h
YJL144W = conditions: S. cerevisiae GFP-tagged strains, 3 h
YJR148W = conditions: S. cerevisiae GFP-tagged strains, 3 h
YKL086W = conditions: S. cerevisiae GFP-tagged strains, 3 h
YKL103C = conditions: S. cerevisiae GFP-tagged strains, 3 h
YKL119C = conditions: S. cerevisiae GFP-tagged strains, 3 h
YKR039W = conditions: S. cerevisiae GFP-tagged strains, 3 h
YKR093W = conditions: S. cerevisiae GFP-tagged strains, 3 h
YKR094C = conditions: S. cerevisiae GFP-tagged strains, 3 h
YLL026W = conditions: S. cerevisiae GFP-tagged strains, 3 h
YLL039C = conditions: S. cerevisiae GFP-tagged strains, 3 h
YLR058C = conditions: S. cerevisiae GFP-tagged strains, 3 h
YLR109W = conditions: S. cerevisiae GFP-tagged strains, 3 h
YLR142W = conditions: S. cerevisiae GFP-tagged strains, 3 h
YLR185W = conditions: S. cerevisiae GFP-tagged strains, 3 h
YLR237W = conditions: S. cerevisiae GFP-tagged strains, 3 h
YLR287C-A = conditions: S. cerevisiae GFP-tagged strains, 3 h
YLR367W = conditions: S. cerevisiae GFP-tagged strains, 3 h
YML004C = conditions: S. cerevisiae GFP-tagged strains, 3 h
YML026C = conditions: S. cerevisiae GFP-tagged strains, 3 h
YML034W = conditions: S. cerevisiae GFP-tagged strains, 3 h
YML063W = conditions: S. cerevisiae GFP-tagged strains, 3 h
YML128C = conditions: S. cerevisiae GFP-tagged strains, 3 h
YMR105C = conditions: S. cerevisiae GFP-tagged strains, 3 h
YMR120C = conditions: S. cerevisiae GFP-tagged strains, 3 h
YMR251W-A = conditions: S. cerevisiae GFP-tagged strains, 3 h
YMR307W = conditions: S. cerevisiae GFP-tagged strains, 3 h
YNL015W = conditions: S. cerevisiae GFP-tagged strains, 3 h
YNL068C = conditions: S. cerevisiae GFP-tagged strains, 3 h
YNL112W = conditions: S. cerevisiae GFP-tagged strains, 3 h
YNL142W = conditions: S. cerevisiae GFP-tagged strains, 3 h
YNL214W = conditions: S. cerevisiae GFP-tagged strains, 3 h
YNR001C = conditions: S. cerevisiae GFP-tagged strains, 3 h
YOL052C-A = conditions: S. cerevisiae GFP-tagged strains, 3 h
YOR038C = conditions: S. cerevisiae GFP-tagged strains, 3 h
YOR063W = conditions: S. cerevisiae GFP-tagged strains, 3 h
YOR136W = conditions: S. cerevisiae GFP-tagged strains, 3 h
YOR173W = conditions: S. cerevisiae GFP-tagged strains, 3 h
YOR182C = conditions: S. cerevisiae GFP-tagged strains, 3 h
YOR371C = conditions: S. cerevisiae GFP-tagged strains, 3 h
YOR375C = conditions: S. cerevisiae GFP-tagged strains, 3 h
YPL111W = conditions: S. cerevisiae GFP-tagged strains, 3 h
YPL131W = conditions: S. cerevisiae GFP-tagged strains, 3 h
YPL150W = conditions: S. cerevisiae GFP-tagged strains, 3 h
YPL220W = conditions: S. cerevisiae GFP-tagged strains, 3 h
YPL265W = conditions: S. cerevisiae GFP-tagged strains, 3 h
YPR132W = conditions: S. cerevisiae GFP-tagged strains, 3 h
YPR145W = conditions: S. cerevisiae GFP-tagged strains, 3 h
YPR184W = conditions: S. cerevisiae GFP-tagged strains, 3 h

Measured: GFP ratio to DMSO

General amino acid permease AGP1 (Saccharomyces cerevisiae S288c), sequence (P25376 whole entry, looked up): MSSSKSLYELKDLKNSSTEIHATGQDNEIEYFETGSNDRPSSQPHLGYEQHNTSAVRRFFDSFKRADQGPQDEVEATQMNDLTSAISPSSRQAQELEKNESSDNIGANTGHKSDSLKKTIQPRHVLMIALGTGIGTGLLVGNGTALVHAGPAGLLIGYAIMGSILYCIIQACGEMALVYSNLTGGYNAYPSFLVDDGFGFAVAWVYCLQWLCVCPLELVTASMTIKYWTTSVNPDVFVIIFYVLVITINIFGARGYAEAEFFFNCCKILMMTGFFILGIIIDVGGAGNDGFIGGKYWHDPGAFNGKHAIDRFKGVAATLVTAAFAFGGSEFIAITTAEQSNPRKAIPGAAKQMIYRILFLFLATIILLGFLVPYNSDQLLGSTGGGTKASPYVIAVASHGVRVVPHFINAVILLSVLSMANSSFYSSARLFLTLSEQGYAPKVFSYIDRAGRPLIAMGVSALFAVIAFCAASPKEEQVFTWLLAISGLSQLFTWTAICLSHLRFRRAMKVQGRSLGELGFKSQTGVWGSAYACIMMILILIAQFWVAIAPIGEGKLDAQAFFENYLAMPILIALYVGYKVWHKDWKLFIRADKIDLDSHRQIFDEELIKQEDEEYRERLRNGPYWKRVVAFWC

CNc1nc(N)c([N+](=O)[O-])c(Nc2cccc(Cl)c2)n1
active: YCR005C 2.27 | YEL071W 2.01 | YGL062W 1.65 | YJR148W 1.71 | YKR093W 1.61 | YMR120C 0.553 | YPL265W 1.62
inactive: [1] 0.961 | YAL060W 0.91 | YAL061W 0.887 | YBL087C 0.955 | YBR072W 0.849 | YBR139W 0.935 | YBR208C 1.16 | YBR248C 1.01 | YCL064C 0.902 | YCR002C 0.916 | YDL130W 1.06 | YDL204W 0.851 | YDL205C 0.943 | YDR070C 1.14 | YDR382W 1.1 | YDR399W 0.977 | YDR453C 1.02 | YEL007W 0.89 | YEL060C 0.826 | YEL063C 1.09 | YER081W 1.21 | YER117W 0.883 | YER151C 0.926 | YER156C 1.01 | YFR031C-A 1.02 | YFR053C 0.888 | YGL036W 0.781 | YGL135W 1.07 | YGL147C 0.988 | YGR019W 1.02 | YGR034W 1.01 | YGR088W 1.07 | YGR121C 1.02 | YHL021C 1.11 | YHR018C 0.948 | YHR087W 0.926 | YHR141C 1.04 | YHR144C 0.837 | YHR203C 1.04 | YIL043C 1 | YIL051C 0.981 | YIL052C 0.864 | YIL066C 0.868 | YIL069C 1.1 | YJL056C 0.808 | YJL144W 0.983 | YKL086W 0.896 | YKL103C 1.21 | YKL119C 0.951 | YKR039W 1.35 | YKR094C 1.06 | YLL026W 1.07 | YLL039C 0.725 | YLR058C 0.859 | YLR109W 1.3 | YLR142W 0.835 | YLR185W 1.04 | YLR237W 0.77 | YLR287C-A 1.04 | YLR367W 1.01 | YML004C 0.875 | YML026C 0.93 | YML034W 0.842 | YML063W 1.04 | YML128C 0.923 | YMR105C 1.17 | YMR251W-A 1.01 | YMR307W 0.996 | YNL015W 0.947 | YNL068C 0.946 | YNL112W 1.07 | YNL142W 1.32 | YNL214W 0.938 | YNR001C 1.17 | YOL052C-A 1.17 | YOR038C 0.974 | YOR063W 1.1 | YOR136W 1.19 | YOR173W 0.891 | YOR182C 1.02 | YOR371C 0.826 | YOR375C 1.17 | YPL111W 1.25 | YPL131W 1.09 | YPL150W 0.863 | YPL220W 1.07 | YPR132W 1.13 | YPR145W 1.32 | YPR184W 0.958
